Test results: US20240365781A1, “SYNERGISTICALLY EFFECTIVE HERBICIDE COMPOSITION COMPRISING PELARGONIC ACID AND FLAZASULFURON” (Belchim Crop Protection NV, priority 2017, published 2024)

Columns and labels:
Test in all cases: post-emergence field trial under rows of vines, 150-200 L water/ha (Examples 6-9)
Type in all cases: in vivo
Details in all cases: flazasulfuron 40 g/ha
[1] = test system: Senecio vulgaris
Text: (§1) The expected activity of a given combination of two or three herbicides can be calculated as follows according to a calculation method by Colby (cf. COLBY, S. R.: “Calculating synergistic and antagonistic responses of herbicide combinations”, • Weeds 15, pages 20-22, 1967): • If X=% damage by herbicide (A) at an application rate of m g/ha, • Y=% damage by herbicide (B) at an application rate of n g/ha, • E=the expected damage by herbicides (A) and (B) at application rates of m and n […] and, • then for a combination:
(§2) Individual compositions comprising pelargonic acid or flazasulfuron are compared with a herbicide composition according to the invention comprising pelargonic acid and flazasulfuron.
(§3) Herbicidal activity was determined by performing a post-emergence test. […] The corresponding mixture was in the form of a spray solution. Besides, spray solutions of individual compositions comprising pelargonic acid or flazasulfuron were used.
(§4) The spray solution was applied on plants of unwanted vegetation present on fields where perennial crops were grown.
(§5) After 5 to 88 days after application of the spray solution, the degree of damage to the unwanted vegetation is rated in % of plants of unwanted vegetation that were killed. Tests were performed on test fields (field trials).

[2] = test system: Chenopodium album
Text: as §1, §2, §3, §4, §5

[3] = test system: Digitaria sanguinalis and Setaria pumila
Text: as §1, §2, §3, §4, §5

[4] = test system: Stellaria media
Text: as §1, §2, §3, §4, §5

[5] = test system: Amaranthus retroflexus
Text: as §1, §2, §3, §4, §5

[6] = 14 d, pelargonic acid 5440 g/ha
[7] = 14 d, pelargonic acid 6800 g/ha
[8] = 14 d, pelargonic acid 8160 g/ha
[9] = 31 d, pelargonic acid 5440 g/ha
[10] = 31 d, pelargonic acid 6800 g/ha
[11] = 31 d, pelargonic acid 8160 g/ha
[12] = 31 d, pelargonic acid 10880 g/ha
[13] = 58 d, pelargonic acid 5440 g/ha
[14] = 58 d, pelargonic acid 8160 g/ha
[15] = 58 d, pelargonic acid 10880 g/ha
[16] = 7 d, pelargonic acid 10880 g/ha
[17] = 14 d, pelargonic acid 10880 g/ha
[18] = 58 d, pelargonic acid 6800 g/ha
[19] = 28 d, pelargonic acid 5440 g/ha
[20] = 28 d, pelargonic acid 6800 g/ha
[21] = 28 d, pelargonic acid 8160 g/ha
[22] = 28 d, pelargonic acid 10880 g/ha

Measured: herbicidal effect

COc1cc(OC)nc(NC(=O)NS(=O)(=O)c2ncccc2C(F)(F)F)n1 [Flazasulfuron, 1-(4,6-dimethoxypyrimidin-2-yl)-3-(3-trifluoromethyl-2-pyridylsulfonyl)urea]
23%: [2]; 7 d, pelargonic acid 5440 g/ha | [2]; [16] | [5]; 7 d, pelargonic acid 5440 g/ha | [5]; [16] | [5]; [6] | [5]; [17]
50%: [1]; [9] | [1]; [10] | [1]; [11] | [1]; [12]
20%: [1]; 7 d, pelargonic acid 5440 g/ha | [1]; 7 d, pelargonic acid 6800 g/ha | [1]; [6] | [1]; [7] | [1]; [8]
91%: [3]; [6] | [3]; [8] | [3]; [17]
78%: [5]; [13] | [5]; [18] | [5]; [14] | [5]; [15]
53%: [2]; [9] | [2]; [11] | [2]; [12] | [5]; [9] | [5]; [10] | [5]; [11] | [5]; [12]
97%: [1]; [13] | [1]; [14] | [1]; [15]
98%: [3]; 65 d, pelargonic acid 5440 g/ha | [3]; 65 d, pelargonic acid 8160 g/ha | [3]; 65 d, pelargonic acid 10880 g/ha
30%: [4]; 7 d, pelargonic acid 8160 g/ha | [4]; [16]
65%: [2]; [13] | [2]; [18] | [2]; [14] | [2]; [15]
54%: [4]; [6] | [4]; [7] | [4]; [8] | [4]; [17]
90%: [3]; [19] | [3]; [20] | [3]; [21] | [3]; [22]
86%: [4]; [19] | [4]; [20] | [4]; [21] | [4]; [22]
13%: [3]; 7 d, pelargonic acid 5440 g/ha | [3]; 7 d, pelargonic acid 6800 g/ha | [3]; 7 d, pelargonic acid 8160 g/ha | [3]; [16]
25%: [2]; [6] | [2]; [17]
